According to patent US9351987B2, “Compositions for treating heartworm infestation” (CEVA SANTE ANIMALE, priority 2010, dated 2016):
Like-named read-outs stand apart in the source and are kept apart here.

Legend:
[1] = estimated from reports from non recommended use of the drug; cited from earlier work
[2] = 36-day study, beagle dogs, cited from earlier work
[3] = Plasma ivermectin concentration after ivermectin implant in dogs; type: in vivo, dog
Description: The concentrations of ivermectin (ng/mL) in the plasma, collected in the jugular vein at day 0 to day 429, are presented in Table 2.
The concentrations of ivermectin in the plasma, collected in the jugular vein, have been evaluated during 429 days for dogs A and […] (Table 2, Example 1) or just dosed until D365 for dogs C and D.

Dirofilaria larvae [4] = experiment: Effective ivermectin rate against Dirofilaria larvae; type: in vivo; details: established by the present inventors
Experimental: Currently approved dosages of ivermectin are about 6 mcg/kg orally or 200 mcg/kg subcutaneously. […] Cunningham C P et al., (Am. J. Vet, Res., 2006, 67) brought evidence that this effective rate might be around 0.2 ng/mL of ivermectin in the plasma.
Also, the formulations according to the present invention provide a long term protection, e.g., at least 6 months, 12 months, or 18 months up to 24 months against infections caused by parasites.

Dirofilaria larvae [5] = details: cited from earlier work
[6] = 14-week oral study, cited from earlier work

Compound: CC[C@H](C)[C@H]1O[C@]2(CC[C@@H]1C)C[C@@H]1C[C@@H](C/C=C(\C)[C@@H](O[C@H]3C[C@H](OC)[C@@H](O[C@H]4C[C@H](OC)[C@@H](O)[C@H](C)O4)[C@H](C)O3)[C@@H](C)/C=C/C=C3\CO[C@@H]4[C@H](O)C(C)=C[C@@H](C(=O)O1)[C@]34O)O2 [Ivermectin]
- Share of collie dogs highly sensitive to ivermectin [1]: Approximately 30%
- Time to steady-state of H2B1a in plasma ([2]; oral 0.5 and 2.0 mg/kg bw): after about three weeks
- Average increase in plasma levels on a four-fold increase in the dose ([2]; oral 0.5 vs 2.0 mg/kg bw): eight-fold
- Ivermectin concentration in plasma ([3]; dog A (6% ivermectin implant), day 1): 6.25 ng/mL
- Ivermectin concentration in plasma ([3]; dog A (6% ivermectin implant), day 2): 5.29 ng/mL
- Ivermectin concentration in plasma ([3]; dog A (6% ivermectin implant), day 4): 5.25 ng/mL
- Ivermectin concentration in plasma ([3]; dog A (6% ivermectin implant), day 10): 2.56 ng/mL
- Ivermectin concentration in plasma ([3]; dog A (6% ivermectin implant), day 21): 1.35 ng/mL
- Ivermectin concentration in plasma ([3]; dog A (6% ivermectin implant), day 30): 0.91 ng/mL
- Ivermectin concentration in plasma ([3]; dog A (6% ivermectin implant), day 39): 1.09 ng/mL
- Ivermectin concentration in plasma ([3]; dog A (6% ivermectin implant), day 60): 0.76 ng/mL
- Ivermectin concentration in plasma ([3]; dog A (6% ivermectin implant), day 78): 0.67 ng/mL
- Ivermectin concentration in plasma ([3]; dog A (6% ivermectin implant), day 99): 0.26 ng/mL
- Ivermectin concentration in plasma ([3]; dog A (6% ivermectin implant), day 120): 0.44 ng/mL
- Ivermectin concentration in plasma ([3]; dog A (6% ivermectin implant), day 141): 0.28 ng/mL
- Ivermectin concentration in plasma ([3]; dog A (6% ivermectin implant), day 162): 0.18 ng/mL
- Ivermectin concentration in plasma ([3]; dog A (6% ivermectin implant), day 183): 0.13 ng/mL
- Ivermectin concentration in plasma ([3]; dog A (6% ivermectin implant), day 211): 0.14 ng/mL
- Ivermectin concentration in plasma ([3]; dog A (6% ivermectin implant), day 239): 0.10 ng/mL
- Ivermectin concentration in plasma ([3]; dog A (6% ivermectin implant), day 266): 0.12 ng/mL
- Ivermectin concentration in plasma ([3]; dog A (6% ivermectin implant), day 295): 0.07 ng/mL
- Ivermectin concentration in plasma ([3]; dog A (6% ivermectin implant), day 329): 0.06 ng/mL
- Ivermectin concentration in plasma ([3]; dog A (6% ivermectin implant), day 365): 0.14 ng/mL
- Ivermectin concentration in plasma ([3]; dog A (6% ivermectin implant), day 380): 0.14 ng/mL
- Ivermectin concentration in plasma ([3]; dog A (6% ivermectin implant), day 395): 0.17 ng/mL
- Ivermectin concentration in plasma ([3]; dog A (6% ivermectin implant), day 429): 0.20 ng/mL
- Ivermectin concentration in plasma ([3]; dog B (6% ivermectin implant), day 1): 3.50 ng/mL
- Ivermectin concentration in plasma ([3]; dog B (6% ivermectin implant), day 2): 3.04 ng/mL
- Ivermectin concentration in plasma ([3]; dog B (6% ivermectin implant), day 4): 2.62 ng/mL
- Ivermectin concentration in plasma ([3]; dog B (6% ivermectin implant), day 10): 0.97 ng/mL
- Ivermectin concentration in plasma ([3]; dog B (6% ivermectin implant), day 21): 1.92 ng/mL
- Ivermectin concentration in plasma ([3]; dog B (6% ivermectin implant), day 30): 1.01 ng/mL
- Ivermectin concentration in plasma ([3]; dog B (6% ivermectin implant), day 39): 1.02 ng/mL
- Ivermectin concentration in plasma ([3]; dog B (6% ivermectin implant), day 60): 0.51 ng/mL
- Ivermectin concentration in plasma ([3]; dog B (6% ivermectin implant), day 78): 0.29 ng/mL
- Ivermectin concentration in plasma ([3]; dog B (6% ivermectin implant), day 99): 0.11 ng/mL
- Ivermectin concentration in plasma ([3]; dog B (6% ivermectin implant), day 120): 0.30 ng/mL
- Ivermectin concentration in plasma ([3]; dog B (6% ivermectin implant), day 141): 0.23 ng/mL
- Ivermectin concentration in plasma ([3]; dog B (6% ivermectin implant), day 162): 0.10 ng/mL
- Ivermectin concentration in plasma ([3]; dog B (6% ivermectin implant), day 183): 0.11 ng/mL
- Ivermectin concentration in plasma ([3]; dog B (6% ivermectin implant), day 211): 0.24 ng/mL
- Ivermectin concentration in plasma ([3]; dog B (6% ivermectin implant), day 239): 0.05 ng/mL
- Ivermectin concentration in plasma ([3]; dog B (6% ivermectin implant), day 266): 0.10 ng/mL
- Ivermectin concentration in plasma ([3]; dog B (6% ivermectin implant), day 295): 0.06 ng/mL
- Ivermectin concentration in plasma ([3]; dog B (6% ivermectin implant), day 365): 0.06 ng/mL
- Ivermectin concentration in plasma ([3]; dog B (6% ivermectin implant), day 380): 0.06 ng/mL
- Ivermectin concentration in plasma ([3]; dog B (6% ivermectin implant), day 395): 0.08 ng/mL
- Ivermectin concentration in plasma ([3]; dog B (6% ivermectin implant), day 429): 0.06 ng/mL
- Ivermectin concentration in plasma ([3]; dog C (4.5% ivermectin implant), day 1): 6.93 ng/mL
- Ivermectin concentration in plasma ([3]; dog C (4.5% ivermectin implant), day 2): 6.42 ng/mL
- Ivermectin concentration in plasma ([3]; dog C (4.5% ivermectin implant), day 4): 4.77 ng/mL
- Ivermectin concentration in plasma ([3]; dog C (4.5% ivermectin implant), day 10): 2.64 ng/mL
- Ivermectin concentration in plasma ([3]; dog C (4.5% ivermectin implant), day 21): 2.14 ng/mL
- Ivermectin concentration in plasma ([3]; dog C (4.5% ivermectin implant), day 30): 1.79 ng/mL
- Ivermectin concentration in plasma ([3]; dog C (4.5% ivermectin implant), day 39): 1.74 ng/mL
- Ivermectin concentration in plasma ([3]; dog C (4.5% ivermectin implant), day 60): 0.28 ng/mL
- Ivermectin concentration in plasma ([3]; dog C (4.5% ivermectin implant), day 78): 0.17 ng/mL
- Ivermectin concentration in plasma ([3]; dog C (4.5% ivermectin implant), day 99): 0.21 ng/mL
- Ivermectin concentration in plasma ([3]; dog C (4.5% ivermectin implant), day 120): 0.27 ng/mL
- Ivermectin concentration in plasma ([3]; dog C (4.5% ivermectin implant), day 141): 0.26 ng/mL
- Ivermectin concentration in plasma ([3]; dog C (4.5% ivermectin implant), day 162): 0.17 ng/mL
- Ivermectin concentration in plasma ([3]; dog C (4.5% ivermectin implant), day 183): 0.17 ng/mL
- Ivermectin concentration in plasma ([3]; dog C (4.5% ivermectin implant), day 211): 0.15 ng/mL
- Ivermectin concentration in plasma ([3]; dog C (4.5% ivermectin implant), day 239): 0.11 ng/mL
- Ivermectin concentration in plasma ([3]; dog C (4.5% ivermectin implant), day 266): 0.13 ng/mL
- Ivermectin concentration in plasma ([3]; dog C (4.5% ivermectin implant), day 295): 0.13 ng/mL
- Ivermectin concentration in plasma ([3]; dog C (4.5% ivermectin implant), day 329): 0.06 ng/mL
- Ivermectin concentration in plasma ([3]; dog C (4.5% ivermectin implant), day 365): 0.16 ng/mL
- Ivermectin concentration in plasma ([3]; dog D (3% ivermectin implant), day 1): 7.63 ng/mL
- Ivermectin concentration in plasma ([3]; dog D (3% ivermectin implant), day 2): 6.95 ng/mL
- Ivermectin concentration in plasma ([3]; dog D (3% ivermectin implant), day 4): 4.35 ng/mL
- Ivermectin concentration in plasma ([3]; dog D (3% ivermectin implant), day 10): 3.82 ng/mL
- Ivermectin concentration in plasma ([3]; dog D (3% ivermectin implant), day 21): 1.23 ng/mL
- Ivermectin concentration in plasma ([3]; dog D (3% ivermectin implant), day 30): 1.54 ng/mL
- Ivermectin concentration in plasma ([3]; dog D (3% ivermectin implant), day 39): 1.15 ng/mL
- Ivermectin concentration in plasma ([3]; dog D (3% ivermectin implant), day 60): 0.84 ng/mL
- Ivermectin concentration in plasma ([3]; dog D (3% ivermectin implant), day 78): 0.52 ng/mL
- Ivermectin concentration in plasma ([3]; dog D (3% ivermectin implant), day 99): 0.69 ng/mL
- Ivermectin concentration in plasma ([3]; dog D (3% ivermectin implant), day 120): 0.87 ng/mL
- Ivermectin concentration in plasma ([3]; dog D (3% ivermectin implant), day 141): 0.65 ng/mL
- Ivermectin concentration in plasma ([3]; dog D (3% ivermectin implant), day 162): 0.45 ng/mL
- Ivermectin concentration in plasma ([3]; dog D (3% ivermectin implant), day 183): 0.51 ng/mL
- Ivermectin concentration in plasma ([3]; dog D (3% ivermectin implant), day 211): 0.29 ng/mL
- Ivermectin concentration in plasma ([3]; dog D (3% ivermectin implant), day 239): 0.18 ng/mL
- Ivermectin concentration in plasma ([3]; dog D (3% ivermectin implant), day 266): 0.22 ng/mL
- Ivermectin concentration in plasma ([3]; dog D (3% ivermectin implant), day 295): 0.13 ng/mL
- Ivermectin concentration in plasma ([3]; dog D (3% ivermectin implant), day 329): 0.13 ng/mL
- Ivermectin concentration in plasma ([3]; dog D (3% ivermectin implant), day 365): 0.09 ng/mL
- Effective rate of ivermectin in the plasma (Dirofilaria larvae [4]): around 0.1 ng/mL
- Effective rate of ivermectin in the plasma (Dirofilaria larvae [5]; Cunningham C P et al., Am. J. Vet. Res., 2006, 67): around 0.2 ng/mL
- Effect on Dirofilaria larvae (Dirofilaria larvae [5]; ivermectin administered per se at 6 mcg/kg, generally reported): able to kill efficiency one month aged Dirofilaria larvae
- No Observable Effect Levels (NOEL) ([6]; beagle dogs (4/sex/group)): 0.5 mg/kg bw
- Signs developed (four dogs, killed prior to the end of the study) ([6]; beagle dogs, 2.0 mg/kg bw group): tremors, ataxia, anorexia and dehydration
- Signs observed ([6]; beagle dogs, 1.0 and 2.0 mg/kg bw): mydriasis and slight weight loss
